Read-outs that look alike come from different tables or passages of the source. One block for each molecule: values may come before it.
Tests used:
rabbit muscle aldolase = biological target: T1, rabbit muscle aldolase (Oryctolagus cuniculus, UniProt P00883); settings: cited from earlier work; for Ki: Blonski et al., 1997
T1 sequence (P00883 1-364): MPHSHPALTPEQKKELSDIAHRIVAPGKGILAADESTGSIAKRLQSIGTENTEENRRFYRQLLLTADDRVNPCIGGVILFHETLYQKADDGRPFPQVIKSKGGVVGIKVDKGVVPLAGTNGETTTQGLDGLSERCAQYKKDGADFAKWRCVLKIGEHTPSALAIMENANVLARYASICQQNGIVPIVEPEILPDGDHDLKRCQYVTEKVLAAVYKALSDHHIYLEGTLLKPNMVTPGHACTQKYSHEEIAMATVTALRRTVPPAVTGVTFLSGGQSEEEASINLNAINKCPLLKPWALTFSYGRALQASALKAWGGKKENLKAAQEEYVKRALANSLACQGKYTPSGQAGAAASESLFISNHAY

[1] = biological target: T2, native aldolase from rabbit muscle (RM) (Oryctolagus cuniculus, UniProt P00883); test: Aldolase activity by coupled enzyme test (TIM/GDH), inactivation and reactivation kinetics; format: biochemical
T2 construct: made in house
T2 sequence (P00883 1-364): T1 sequence (P00883 1-364)
Method: Aldolase activity was measured using a coupled enzyme test system: the triose-phosphate isomerase and glycerol-3-phosphate deshydrogenase (TIM/GDH) system, following oxidation of the NADH (Boehringer-Mannheim, France) at 340 nm, by means of a SAFAS spectrophotometer preheated to 25° C. Testing began with the addition of the substrate (Fru(1.6)P2; […] in final concentration), to complete an aldolase solution created in a triethanolamine buffer (TEA buffer) (100 Mm TEA/HCl; 50 mM NaCl; 1 mM EDTA, pH 7.6; ionic strength 0.15), 0.42 mM of NADH, and containing both enzyme systems (10 μg/mL of GDH and 1 μg/mL of TIM) for a final volume of 1 mL. The construction, overexpression and purification of recombinant aldolase were carried out in accordance with Morris A. J. et al., 1993 (J. Biol. Chem., 265:1095-1100) and Berthiaume L. et al., 1993 (J. Biol. Chem., 268:10826-10835).
The substrate cleavage rate was determined by measuring the decrease in absorbance/minute at 340 nm. The aldolase was dialyzed overnight at 4° C. against a TEA buffer prior to use. The protein concentration was determined by spectrophotometry, using ε280=0.91 mL.mg^−1.cm^−1 as an extinction coefficient. Subunit concentration was determined on the basis of a molecular weight of 159,000 for an aldolase tetramer. • Kinetic Method:
In the extreme situation where k−2 approaches zero, a reversible slow-binding inhibitor may resemble an irreversible one directed toward the active site. In this situation, the equation eqn.(3) is used for this type of inhibition (Meloche H. P., 1967, Biochemistry, 6:2273-2280). The semi-inactivation time of the enzyme (t1/2) is defined as a function of the mutual inhibitor concentration and is graphically represented by a straight line crossing the Y-axis at […] and crossing the X-axis at −1/Ki. • Experimental Protocol:
Native aldolase (5 μM of subunits) is incubated in the presence of FHN-P (0.05-1 mM) in TEA buffer. Enzyme activity is analyzed as a function of time using 10 μl aliquot portions.
Inactivation kinetics follow pseudo-first-order kinetics, and kinetic parameters Ki and k2 are determined by using the equation eqn.(3). To determine the reactivation rate, aldolase (25 μM of subunits in the TEA buffer) is incubated with 500 μM of FHN-P until reaching 90% inactivation. Excess inhibitor is removed by ultrafiltration with a PM-30 Millipore membrane. The enzyme-inhibitor complex is incubated in the TEA buffer (15 μM of subunits at final concentration) containing hexitol-P2 (10 mM). Aliquot portions (10 μl) are removed at different times to measure aldolase activity.
Controls involve repeating the protocol without FHN-P. The reactivation process is analyzed as if it were a first-order reaction. • Monitored by UV-Visible Differential Spectroscopy.

[2] = rabbit muscle aldolase, read-out: dissociation constant (or inhibition constant) Ki

Compound: O=Cc1ccc(OP(=O)(O)O)cc1O [2-hydroxybenzaldehyde-4-phosphate]
reduction of aldolase activity (rabbit muscle aldolase; inhibitor concentration of around 200 μM): 80%
Ki (rabbit muscle aldolase; reversible time-dependent inhibitor, read-out: global inhibition constant Ki*): 35 ± 5 µM

aldolase inactivation (in words) ([1]; 250 μM, same conditions as Table 1): totally inactive
Specific activity ([1]; RM 0.2 mg/mL, compound 250 μM, TEA buffer pH 7.6, 80 min incubation, RM alone 12.5 ± 0.5): 12.5 ± 0.5 Unit/mg
Compound: O=Cc1ccc2cc(O)ccc2c1O [DHNA, 1,6-dihydroxy-2-naphthaldehyde, reference compound]

Compound: O=Cc1ccc(OP(=O)(O)O)cc1 [HBA-P, benzaldehyde-4-phosphate]
Ki (rabbit muscle aldolase; [2]): ~500 µM

Compound: O=P(O)(O)Oc1ccc(OP(=O)(O)O)cc1 [HQN-P2]
Ki (rabbit muscle aldolase; [2]): ~135 µM

Compound: O=P(O)(O)Oc1cccc(OP(=O)(O)O)c1 [RSN-P2]
Ki (rabbit muscle aldolase; [2]): ~50 µM

Reference: patent publication US7470821B2, “Aldolase-inhibiting aromatic compounds” (Valorisation-Recherche, Limited Partnership, priority 2003, dated 2008)
